Test results reported in patent US20250129084A1, “Compounds” (GlaxoSmithKline Intellectual Property Development Limited, priority 2022, published 2025).
≈ marks a conversion by molar mass, not a printed value. Read-outs that look alike come from different tables or passages of the source.

What was measured:
[1] = system: Mycobacterium tuberculosis H37Rv; experiment: Mycobacterium tuberculosis in vitro H37Rv extracellular inhibition assay (OD readout); type: cell-based; settings: 192 h, read-out: Assay 2 MIC (μM) extracellular
[2] = system: Mycobacterium tuberculosis H37Rv in human macrophages THP-1; experiment: Mycobacterium tuberculosis in vitro H37Rv in human macrophages THP-1 inhibition assay (intracellular assay); type: cell-based; settings: read-out: Assay 3 MIC (μM) intracellular
Excerpt: Assay 3 Mycobacterium tuberculosis In Vitro H37Rv in Human Macrophages THP-1 Inhibition Assay
This ex-vivo assay may represent physiological conditions that mimic disease and take into consideration the favourable contribution of host cells.

[3] = system: Mycobacterium tuberculosis H37Rv; experiment: Acute Mycobacterium tuberculosis in vivo assay
[4] = biological target: T1, Mycobacterium tuberculosis lysine tRNA synthetase (MtKRS) (Mycobacterium tuberculosis, UniProt P9WFU9); experiment: biochemical; settings: 40 nM MtKRS, 30 μM ATP, 12 μM L-lysine, 20 hours incubation; read-out: Assay 1 Mtb KRS
T1 construct: made in house; host or cells: E. coli BL21 (DE3)
T1 sequence (P9WFU9 whole entry): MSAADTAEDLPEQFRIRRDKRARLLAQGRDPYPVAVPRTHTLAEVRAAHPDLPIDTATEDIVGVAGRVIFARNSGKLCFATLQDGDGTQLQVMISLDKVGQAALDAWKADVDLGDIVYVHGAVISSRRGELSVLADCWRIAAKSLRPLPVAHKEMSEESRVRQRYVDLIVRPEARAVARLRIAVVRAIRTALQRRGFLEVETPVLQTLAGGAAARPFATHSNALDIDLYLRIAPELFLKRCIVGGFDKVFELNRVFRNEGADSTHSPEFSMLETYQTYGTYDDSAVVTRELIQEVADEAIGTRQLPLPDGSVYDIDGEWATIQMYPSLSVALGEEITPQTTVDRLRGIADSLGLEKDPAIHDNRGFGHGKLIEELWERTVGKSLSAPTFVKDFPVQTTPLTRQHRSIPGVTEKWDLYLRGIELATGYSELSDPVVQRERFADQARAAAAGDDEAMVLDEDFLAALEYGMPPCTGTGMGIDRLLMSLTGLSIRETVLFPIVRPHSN

[5] = H37Rv in THP-1 human macrophages

CCOc1nc(N)nc2c1C(=O)N([C@@H]1CCCCC[C@@H]1O)C2 [Example 46, 2-Amino-4-ethoxy-6-((1R,2S)-2-hydroxycycloheptyl)-6,7-dihydro-5H-pyrrolo[3,4-d]pyrimidin-5-one]
MIC ([1]; H37RV): 0.5 µM (≈ 0.153 µg/mL) | MIC ([2]; H37RV): 1.1 µM (≈ 0.337 µg/mL) | Log PCR reduction in acute efficacy study @ 50 mg/kg ([3]; C57BL/6 mice, 50 mg/kg oral once a day, day 1 to day 8): 3 | Assay 4 ED99 ([3]; female C57BL/6 mice, intratracheal infection, oral once a day day 1 to day 8, lungs harvested day 9): 7 mg/kg

CNc1nc(N)nc2c1C(=O)N([C@H]1[C@@H](O)CCCCC1(F)F)C2 [Example 51, 2-Amino-6-((1S,7S)-2,2-difluoro-7-hydroxycycloheptyl)-4-(methylamino)-6,7-dihydro-5H-pyrrolo[3,4-d]pyrimidin-5-one]
IC50 [4]: 200 nM | MIC ([1]; H37RV): 1 µM (≈ 0.327 µg/mL) | MIC ([2]; H37RV): 0.3 µM (≈ 0.0982 µg/mL)

Nc1nc2c(c(-n3cccn3)n1)C(=O)N([C@H]1[C@@H](O)CCCCC1(F)F)C2 [Example 52, 2-Amino-6-((1S,7S)-2,2-difluoro-7-hydroxycycloheptyl)-4-(1H-pyrazol-1-yl)-6,7-dihydro-5H-pyrrolo[3,4-d]pyrimidin-5-one]
IC50 [4]: 80 nM | MIC ([1]; H37Rv, 7H9 medium, 8 days, Abs 590 nm): 0.1 µM (≈ 0.0364 µg/mL) | MIC [2, 5]: 0.06 µM (≈ 0.0219 µg/mL) | CFU reduction @12 mg/kg (acute efficacy study) ([3]; C57BL/6 mice, 12 mg/kg oral once a day, day 1 to day 8): 0.4 (CFU reduction

CCOc1cnn(-c2nc(N)nc3c2C(=O)N([C@@H]2CCCC[C@@H]2O)C3)c1 [Example 53, 2-amino-4-(4-ethoxy-1H-pyrazol-1-yl)-6-((1R,2S)-2-hydroxycyclohexyl)-6,7-dihydro-5H-pyrrolo[3,4-d]pyrimidin-5-one]
IC50 [4]: 300 nM | MIC [2, 5]: 0.3 µM (≈ 0.108 µg/mL)

CCOc1cnn(-c2nc(N)nc3c2C(=O)N([C@H]2CCCCC2(F)F)C3)c1 [Example 54, (S)-2-amino-6-(2,2-difluorocyclohexyl)-4-(4-ethoxy-1H-pyrazol-1-yl)-6,7-dihydro-5H-pyrrolo[3,4-d]pyrimidin-5-one]
IC50 [4]: 200 nM
